Molecules are shown by their SMILES.

These results are taken from patent US20130252890A1, “6,7-DIHYDRO-5H-BENZO[7]ANNULENE DERIVATIVES, PROCESS FOR PREPARATION THEREOF, PHARMACEUTICAL PREPARATIONS COMPRISING THEM, AND THE USE THEREOF FOR PRODUCTION OF MEDICAMENTS” (BAYER INTELLECTUAL PROPERTY GMBH, priority 2010, published 2013).

In the test the target is T1, oestrogen receptor (ER) (Homo sapiens, UniProt P03372).
T1 construct: These MVLN cells express, along with the functional oestrogen receptor (ER), a reporter construct; endogenous in cells; host or cells: MVLN cells (MCF7 derivative carrying a luciferase reporter construct)
T1 sequence (P03372 1-595): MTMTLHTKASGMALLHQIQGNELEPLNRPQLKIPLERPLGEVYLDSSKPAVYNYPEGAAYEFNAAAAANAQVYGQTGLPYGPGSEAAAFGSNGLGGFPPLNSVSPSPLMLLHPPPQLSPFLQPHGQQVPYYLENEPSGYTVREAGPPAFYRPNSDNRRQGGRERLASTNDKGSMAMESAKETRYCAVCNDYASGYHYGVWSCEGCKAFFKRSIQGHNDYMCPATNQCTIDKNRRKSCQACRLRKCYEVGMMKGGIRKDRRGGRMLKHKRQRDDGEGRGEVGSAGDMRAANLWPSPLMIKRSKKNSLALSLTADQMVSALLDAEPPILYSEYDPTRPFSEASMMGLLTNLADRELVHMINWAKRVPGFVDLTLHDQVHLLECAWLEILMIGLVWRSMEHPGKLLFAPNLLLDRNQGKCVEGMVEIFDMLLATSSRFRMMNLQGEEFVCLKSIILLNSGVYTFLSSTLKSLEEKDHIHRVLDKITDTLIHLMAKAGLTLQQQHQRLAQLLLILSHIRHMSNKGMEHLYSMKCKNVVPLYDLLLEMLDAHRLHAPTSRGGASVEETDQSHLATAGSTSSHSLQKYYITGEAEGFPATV
As to the kind of experiment: Anti-oestrogenic action in MVLN cells (inhibition of estradiol-induced luciferase). It counts as cell-based. The note with it: inhibition of estradiol-induced luciferase signal, value of Ex. 44 is a mean value, read-out: Antioestrogenic action in vitro: MVLN transactivation antagonism IC50. From the text:
The anti-oestrogenic action of the claimed pharmacological compounds was investigated in so-called MVLN cells in vitro. MVLN cells are derivatives of the hormone-responsive MCF7 breast cancer cells known by a person skilled in the art. These MVLN cells express, along with the functional oestrogen receptor (ER), a reporter construct, which under ER-activation expresses luciferase. Determination of the activity of the induced luciferase permits a direct conclusion on the oestrogen properties of substances. To investigate the anti-oestrogenic properties of the pharmacological compounds, they were investigated in the presence of oestrogen for their potential for inhibiting the luciferase signal induced by estradiol. The claimed pharmacological test substances were investigated in MVLN cells for their anti-oestrogenic potential, as described (see Table 2).
`CC(C)(O)CN(CCCCCCC1=C(c2ccc(F)c(F)c2)CCCc2cc(O)ccc21)CCC[S+]([O-])CCC(F)(F)F` (stereo not shown) [Example 26, 8-(3,4-Difluorophenyl)-9-{6-[(2-hydroxy-2-methylpropyl){3-[(3,3,3-trifluoropropyl)sulphinyl]propyl}amino]hexyl}-6,7-dihydro-5H-benzo[7]annulen-3-ol]: the IC50 turned out to be 28 nM.

Take `CC(C)(O)CN(CCCCCCC1=C(c2ccc(F)c(F)c2)CCCc2cc(O)ccc21)CCC[S+]([O-])CCCC(F)(F)C(F)(F)F` (stereo not shown) [Example 28, 8-(3,4-Difluorophenyl)-9-{6-[(2-hydroxy-2-methylpropyl){3-[(4,4,5,5,5-pentafluoropentyl)sulphinyl]propyl}amino]hexyl}-6,7-dihydro-5H-benzo[7]annulen-3-ol]: the IC50 was 9 nM.

On to `CC(C)(O)CN(CCCCCCC1=C(c2ccc(F)c(F)c2)CCCc2cc(O)ccc21)CCCS(=O)(=O)CCCC(F)(F)C(F)(F)F` [Example 29, 8-(3,4-Difluorophenyl)-9-{6-[(2-hydroxy-2-methylpropyl){3-[(4,4,5,5,5-pentafluoropentyl)sulphonyl]propyl}amino]hexyl}-6,7-dihydro-5H-benzo[7]annulen-3-ol], for which the IC50 turned out to be 10 nM.

`CCN(CCCCCCC1=C(c2ccc(F)c(F)c2)CCCc2cc(O)ccc21)CCCS(=O)(=O)CCC(F)(F)F` [Example 30, 8-(3,4-Difluorophenyl)-9-[6-(ethyl{3-[(3,3,3-trifluoropropyl)sulphonyl]propyl}amino)hexyl]-6,7-dihydro-5H-benzo[7]annulen-3-ol]: the half-inhibitory concentration (IC50) was 88 nM.

With `COCCN(CCCCCCC1=C(c2ccc(F)c(F)c2)CCCc2cc(O)ccc21)CCCS(=O)(=O)CCCC(F)(F)C(F)(F)F` [Example 31, 8-(3,4-Difluorophenyl)-9-{6-[(2-methoxyethyl){3-[(4,4,5,5,5-pentafluoropentyl)sulphonyl]propyl}amino]hexyl}-6,7-dihydro-5H-benzo[7]annulen-3-ol], the IC50 stood at 16 nM.

`COCCCN(CCCCCCC1=C(c2ccc(F)c(F)c2)CCCc2cc(O)ccc21)CCCS(=O)(=O)CCCC(F)(F)C(F)(F)F` [Example 32, 8-(3,4-Difluorophenyl)-9-{6-[(3-methoxypropyl){3-[(4,4,5,5,5-pentafluoropentyl)sulphonyl]propyl}amino]hexyl}-6,7-dihydro-5H-benzo[7]annulen-3-ol]: the IC50 worked out at 33 nM.

Regarding `CN(CCCCCCC1=C(c2ccc(F)cc2)CCCc2c1ccc(O)c2F)CCCS(=O)(=O)CCCC(F)(F)C(F)(F)F` [Example 33, 4-Fluoro-8-(4-fluorophenyl)-9-[6-(methyl{3-[(4,4,5,5,5-pentafluoropentyl)sulphonyl]propyl}amino)hexyl]-6,7-dihydro-5H-benzo[7]annulen-3-ol], the half-maximal inhibitory concentration (IC50) was found to be 11 nM.

Take `CN(CCCCCCC1=C(c2ccc(F)cc2)CCCc2c1ccc(O)c2F)CCCS(=O)(=O)CCC(F)(F)C(F)(F)F` [Example 34, 4-Fluoro-8-(4-fluorophenyl)-9-[6-(methyl{3-[(3,3,4,4,4-pentafluorobutyl)sulphonyl]propyl}amino)hexyl]-6,7-dihydro-5H-benzo[7]annulen-3-ol]: the IC50 was 27 nM.

Turning to `CN(CCCCCCC1=C(c2ccc(F)cc2)CCCc2c1ccc(O)c2F)CCCC[S+]([O-])CCCC(F)(F)C(F)(F)F` (stereo not shown) [Example 35, 4-Fluoro-8-(4-fluorophenyl)-9-[6-(methyl{4-[(4,4,5,5,5-pentafluoropentyl)sulphinyl]butyl}amino)hexyl]-6,7-dihydro-5H-benzo[7]annulen-3-ol], the IC50 was determined as 10 nM.

As for `CN(CCCCCCC1=C(c2ccc(F)cc2)CCCc2c1ccc(O)c2F)CCC[S+]([O-])CCC(F)(F)F` (stereo not shown) [Example 36, 4-Fluoro-8-(4-fluorophenyl)-9-[6-(methyl{3-[(3,3,3-trifluoropropyl)sulphinyl]propyl}amino)hexyl]-6,7-dihydro-5H-benzo[7]annulen-3-ol], the IC50 was 35 nM.

For orientation: IC50 means the concentration that gives 50% inhibition.
